Data from paper PMC12648010 (Acta Pharmaceutica Sinica. B, 2025).

Molecular target: T1, SLC38A9 (Homo sapiens, UniProt Q8NBW4)
T1 sequence (Q8NBW4 1-561): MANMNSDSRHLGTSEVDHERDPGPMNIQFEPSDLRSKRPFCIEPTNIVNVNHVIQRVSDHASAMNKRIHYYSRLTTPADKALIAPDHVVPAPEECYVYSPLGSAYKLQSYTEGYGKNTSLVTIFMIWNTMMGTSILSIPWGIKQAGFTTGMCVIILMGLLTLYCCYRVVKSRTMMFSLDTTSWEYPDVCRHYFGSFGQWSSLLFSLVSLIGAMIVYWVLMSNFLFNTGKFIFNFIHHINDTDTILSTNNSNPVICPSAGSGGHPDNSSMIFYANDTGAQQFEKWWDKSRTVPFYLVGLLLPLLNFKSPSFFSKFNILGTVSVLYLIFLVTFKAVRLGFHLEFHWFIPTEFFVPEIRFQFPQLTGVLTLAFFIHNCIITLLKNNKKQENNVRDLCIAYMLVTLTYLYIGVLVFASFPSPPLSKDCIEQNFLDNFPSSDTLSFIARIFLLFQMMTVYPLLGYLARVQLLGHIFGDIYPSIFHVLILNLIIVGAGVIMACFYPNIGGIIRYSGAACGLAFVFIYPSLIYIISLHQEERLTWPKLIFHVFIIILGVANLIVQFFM
Experiment: SPR
Type: binding

Kd: 1290 nM
SMILES: C=CC(=O)Nc1cccc2[nH]nc(-c3nc4ccc(N5CCN(C)CC5)cc4[nH]3)c12 [LLAD, N-(3-(6-(4-Methylpiperazin-1-yl) -1H-benzo[d]imidazole-2-yl)-1H-indazol-4-yl) acrylamide]
